Residues, ends and D or L forms follow the SMILES beside them.
What was measured:
Rubisco = target: T1, Rubisco (Chlamydomonas reinhardtii, UniProt P00873); assay: Surface plasmon resonance (SPR) assay of peptides binding to immobilized Rubisco
T1 construct: Rubisco was purified from Chlamydomonas reinhardtii strain cMJ030; endogenous in cells; host or cells: Chlamydomonas reinhardtii strain cMJ030 (wild type); holoenzyme purified from lysate by sucrose gradient and anion exchange
Method: Surface Plasmon Resonance (SPR) Assay Rubisco was immobilized on a surface and peptides in solution were flowed over the surface. Surface plasmon measurements of binding of individual peptides to Rubisco were assayed (FIG. 3B).
Rubisco was purified from Chlamydomonas reinhardtii strain cMJ030. Cells were disrupted by ultrasonication in lysis buffer (10 mM MgCl2, 50 mM Bicine, 10 mM NaHCO3, 1 mM dithiothreitol (DTT) pH 8.0) supplemented with Halt Protease Inhibitor Cocktail, EDTA-Free (Fisher Scientific). The soluble lysate was fractionated by ultracentrifuge in a 10%-30% sucrose gradient in a SW 41 Ti rotor at 35,000 rpm for 20 hours at 4° C. Rubisco-containing fractions were applied to an anion exchange column (MONO Q 5/50 GL, GE Healthcare) and fractionated by using a linear salt gradient from 0 to 0.5 M NaCl (10 mM MgCl2, 50 mM Bicine, 10 mM NaHCO3, 1 mM dithiothreitol pH 8.0).
Mutagenesis of EPYC1, Mutagenesis of Rubisco, Yeast Two-hybrid, Peptide Arrays and SPR Assays To determine the importance of individual EPYC1 residues for binding to Rubisco, the impact on Rubisco binding of every possible single amino acid substitution for EPYC1 RBM 2 was determined (FIG. 8). […]
SPR Assays: The Rubisco-binding capacity for the C-terminal motif variant (W[+]xxΨ ) was determined using SPR by probing purified Rubisco with fifteen amino acid-long synthetic peptides. […]

C. reinhardtii cells = assay: Confocal fluorescence microscopy localization of Venus fusion proteins; type: cell-based, Chlamydomonas reinhardtii; settings: Venus fluorescence in C. reinhardtii cells
Excerpt: A synthetic […] (Invitrogen) containing a 643 bp restriction fragment containing the C-terminus of Venus, followed by the sequence coding for the FLAG-tag sequence, and a sequence coding for three repetitions of the 15 C-terminal amino acids of SAGA2, was cloned into pLM005-FDX1, after restriction digestion with EcoRl and PfIMI. GenBank accession number of the empty pLM005 is KX077945.1. The plasmid pLM005-FDX1 is identical to pLM005 with the genomic sequence of FDX1 cloned in frame by Gibson Assembly (Mackinder et al., PNAS 113: 5958-5963, 2015) between residues 2698 and 3234. The terminal 85 amino acids of resultant mature fusion protein, immediately downstream of the FLAG-tag, were a 5 aa linker (GGGGS; SEQ ID NO: 87), a first copy of SAGA2 15 C-terminal aa, followed by a 10 aa linker (2X GGGGS; SEQ ID NO: 88), a second copy of SAGA2 15 last aa, another 10 aa linker (2X GGGGS; SEQ ID NO: 88), and finally a third copy of SAGA2 15 last aa. The sequence of the EcoRI-PfIMI digestion fragment (SEQ ID NO: 89) was cloned in frame into pLM005-FDX1.
Culturing and Transformation of C. reinhardtii: Culturing and transformation of C. reinhardtii for fluorescence localization of protein and imaging was performed as described in Mackinder et al. (PNAS 113: 5958-5963, 2015). […]

T1 sequence (P00873 46-185, other chains not shown): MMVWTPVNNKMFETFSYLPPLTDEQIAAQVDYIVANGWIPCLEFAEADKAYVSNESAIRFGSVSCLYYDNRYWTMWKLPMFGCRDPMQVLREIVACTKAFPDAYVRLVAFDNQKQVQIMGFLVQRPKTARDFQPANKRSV

Compound	Kd (Rubisco; KD, 24 amino acid EPYC1 fragment spanning RBM 2 binding to Rubisco, FIG. 4C) [mM]	Kd (Rubisco; Kd, individual EPYC1 RBM peptides binding to Rubisco) [mM]	localization pattern within the pyrenoid (C. reinhardtii cells; FIG. 15)	localization (C. reinhardtii cells; FIGS. 14B and 15)
CC(C)C[C@H](NC(=O)[C@H](CO)NC(=O)[C@H](CCC(=O)O)NC(=O)[C@H](CC(C)C)NC(=O)[C@H](CCC(=O)O)NC(=O)[C@H](CCC(N)=O)NC(=O)[C@H](CCCNC(=N)N)NC(=O)[C@H](Cc1c[nH]c2ccccc12)NC(=O)[C@H](CC(N)=O)NC(=O)[C@H](C)NC(=O)[C@@H]1CCCN1C(=O)[C@H](CC(C)C)NC(=O)[C@@H](NC(=O)[C@H](CO)NC(=O)[C@H](CCCNC(=N)N)NC(=O)[C@@H](NC(=O)[C@@H]1CCCN1C(=O)[C@H](CO)NC(=O)[C@@H](NC(=O)[C@H](CCCNC(=N)N)NC(=O)[C@H](CC(N)=O)NC(=O)[C@@H](N)[C@@H](C)O)C(C)C)[C@@H](C)O)C(C)C)C(=O)N[C@@H](CCCNC(=N)N)C(=O)N[C@@H](CC(N)=O)C(=O)O [EPYC1 fragment] (H-TNRVSPTRSVLPANWRQELESLRN-OH)	3.09	3		
RBMP2-Venus: Rubisco-Binding Membrane Protein 2 (SEQ ID NO: 2) fused to the Venus fluorescent protein			confined to the very heart of the pyrenoid	localized to the pyrenoid

From patent US20220275390A1, “RUBISCO-BINDING PROTEIN MOTIFS AND USES THEREOF” (The Trustees of Princeton University, priority 2019, published 2022)
